Measured values taken from patent publication US20260001915A1, “METHODS FOR TREATING OBESITY WITH AN MC4R AGONIST” (RHYTHM PHARMACEUTICALS, INC., priority 2022, published 2026).

Key:
[1] = Long-term extension study of setmelanotide, hypothalamic obesity subpopulation; type: in vivo, human
Method: This example describes a long-term extension study of the use of setmelanotide in treating hypothalamic obesity, and further to investigate the safety and tolerability of chronic setmelanotide administration for up to 5 years from initiation of treatment.
Setmelanotide, 10 mg/mL in a sterile solution, QD. Dosing was continued at the dosage of the cessation of the previous setmelanotide trial, (e.g., 3.0 mg QD for most patients enrolled in the setmelanotide trial for treating subjects with hypothalamic obesity), unless a change is determined necessary by the Investigator, e.g., for safety, tolerability, TEAE, SAE, or other concern.
The objective of this study was to examine the long-term safety parameters of chronic, daily subcutaneous setmelanotide injections for a period of up to 5 years. In order to assess this primary endpoint, the occurrence of TEAEs and SAEs were tracked, in addition to other clinical data including any new emergence of injection site reactions, changes in resting heart rate or blood pressure, laboratory workup (e.g., fasting glucose, HbA1c, lipid profiles (total-, high-density lipoprotein [HDL]-, and low-density lipoprotein [LDL]-cholesterol, triglycerides), liver enzymes, changes in physical examination (e.g., weight, BMI, BMI Z-Score), and cardiac changes (e.g., as measured by an electrocardiogram (ECG). […]

[2] = patients with POMC and LEPR deficiency obesity; cited from earlier work
[3] = Phase 2 hypothalamic obesity study: daily hunger questionnaire (most hungry last 24 hrs), weekly average of daily most hunger score; type: in vivo, human; details: patients ≥12 years of age
Text: (§1) The secondary endpoints included determination of: • Composite proportion of patients aged ≥6 to <18 years with ≥0.2 reduction of BMI Z-score and patients aged ≥18 years with 5% reduction of body weight from baseline after 16 weeks of setmelanotide • Proportion of patients aged ≥6 to <18 years with ≥0.2 reduction of BMI Z-score from baseline after 16 weeks of setmelanotide • Proportion of patients aged 18 years with 5% reduction of body weight from baseline after 16 weeks of setmelanotide • Change from baseline in waist circumference in patients aged 18 years after 16 weeks of setmelanotide treatment. • Change in hunger in response to 16 weeks of setmelanotide treatment as measured by change from baseline in daily and global hunger scores. • Safety and tolerability assessed by the frequency and severity of AEs, vital signs, and laboratory evaluations. • Change from baseline in metabolic parameters following treatment with setmelanotide, including fasting glucose, HbA1c, lipid profiles (total-, high-density lipoprotein [HDL]-, and low-density lipoprotein [LDL]-cholesterol, triglycerides). • Proportion of patients, regardless of age, with ≥5% body weight loss from baseline after 16 weeks of setmelanotide treatment compared to a historic control of <5% in this patient population. • Change from baseline in BMI, weight, and waist circumference, regardless of age, after 16 weeks of setmelanotide treatment. • Change from baseline in BMI Z-score in patients aged 6 to 12 years and in those aged 6 to <18 years.
All screening evaluations were completed and reviewed to confirm that potential patients meet all eligibility criteria. […]
The daily hunger questionnaire as assessed in patients ≥12 years of age also achieved a clinically meaningful diminution quantifying the most hungry the patient has experienced over the last 24 hours, with a mean reduction in the hunger score of −2.66 after 16 weeks. […]

[4] = clinical trials; cited from earlier work
[5] = Phase 2 open-label study of setmelanotide SC daily in patients with hypothalamic obesity: BMI, BMI Z-score, body weight after 16 weeks; type: in vivo, human; details: for Weight (kg), Week 16 Actual, Mean (SD): 16 weeks of treatment
Method: This example describes a phase 2 study that seeks to evaluate the change in body weight in response to an exemplary MC4R agonist, e.g., setmelanotide (i.e., SEQ ID NO: 140) administered subcutaneously (SC) daily in patients with hypothalamic obesity (HO).
Setmelanotide, 10 mg/mL in a sterile solution for injection, was provided at 1.0, 2.0, 3.0 mg QD for patients 6 to <16 years of age, and 2.0 to 3.0 mg QD for patients ≥16 years of age.
The primary endpoint of this study was to identify a proportion of patients with ≥5% reduction from baseline in BMI after 16 weeks of setmelanotide treatment compared to a historic control of <5% in this patient population.
as §1
This study describes a Phase 2, multicenter, open-label, proof of concept study designed to assess the effect of setmelanotide on weight loss within a population affected by HO. Approximately 15 patients aged 6 to 40 years, inclusive, were enrolled across approximately 3-5 clinical sites in the United States (US).
Patients who were determined to be eligible, based on Screening assessments, returned to the clinic for the Baseline Visit (Visit 2) and received the first setmelanotide dose. The starting setmelanotide dose was dependent on patient age; however, for all patients, the setmelanotide dose was titrated to a final dose of 3.0 mg/day (initial titration phase), as follows
• Starting at Baseline (Day 1; Visit 2) through approximately Day 14, patients received setmelanotide 1.0 mg/day. • Starting at approximately Day 15 through 28, patients received setmelanotide 2.0 mg/day.
• Starting at Baseline (Day 1; Visit 2) through approximately Day 14, patients received setmelanotide 2.0 mg/day. • Starting at approximately Day 15, patients received setmelanotide 3.0 mg/day; patients continue to receive setmelanotide 3.0 mg/day for 14 weeks.
Patients returned to the study center for Visits 3, 4, and 5 (Weeks 4, 8, and 12, respectively), with each of these visits conducted approximately 4 weeks apart. All patients returned to the study center at Week 16 (Visit 6) and received the last setmelanotide injection. Study endpoints were analyzed at Visit 6.
All patients received open-label setmelanotide in this study. Setmelanotide was provided as a preserved, multidose solution for injection to be administered SC, QD. It was formulated as a 10 mg/mL sterile, preserved, clear to slightly opalescent, colorless to slightly colored solution, practically free of visible particles. […]

[6] = Phase 2 hypothalamic obesity study: safety and tolerability (TEAEs, SAEs); type: in vivo, human
Text: as §1
All screening evaluations were completed and reviewed to confirm that potential patients meet all eligibility criteria. Exemplary evaluations included a medical history review, physical examination, comprehensive skin examination, measurement of height, weight, waist circumference, body composition assessment, pregnancy test (if applicable), daily hunger questionnaires, global hunger assessment, and evaluation of PHQ-A or PHQ-9, C—SSRS, SF-12 or SF-10, IWQOL, FSH, HbA1c, and fasting lipid panel. Adjustments were made depending upon specific circumstances and in consultation with the investigator. Immediate safety concerns were discussed immediately upon occurrence or awareness to determine if the patient should continue or discontinue study treatment.
The most commonly reported TEAE was nausea (63.6%).

CC(=O)N[C@@H](CCCNC(=N)N)C(=O)N[C@H]1CSSC[C@@H](C(N)=O)NC(=O)[C@H](Cc2c[nH]c3ccccc23)NC(=O)[C@H](CCCNC(=N)N)NC(=O)[C@@H](Cc2ccccc2)NC(=O)[C@H](Cc2cnc[nH]2)NC(=O)[C@@H](C)NC1=O [setmelanotide, Ac-Arg-c(Cys-D-Ala-His-D-Phe-Arg-Trp-Cys)-NH2]
BMI in long-term extension ([1]; 5 patients from the Phase 2 study, additional 3-8 months): all of the patients but one continued to further see reductions in BMI
BMI of the fifth patient (increase in BMI in the extension period) ([1]; relative to BMI at initiation of the Phase 2 study): did not return to his or her original BMI
Reduction in hunger [2]: statistically significant and clinically meaningful reduction in hunger
Weight loss [2]: rapid and sustained significant and clinically meaningful weight loss
Weekly average of daily most hunger score, Week 16 Actual, Median ([3]; N 7): 5.67
Weekly average of daily most hunger score, Week 16 Change from Baseline, Median ([3]; N 7): −1.71
Weekly average of daily most hunger score (Most Hungry Last 24 hrs), Week 16 Actual, Mean (SD) ([3]; N 7 at Week 16): 4.55 (2.84)
Effect on blood pressure [4]: has not been shown to adversely affect blood pressure
Weight (kg), Week 16 Actual, Median ([5]; 6-<18 years (N = 9)): 93.07 kg
Weight (kg), Week 16 Change from Baseline, Mean (SD) ([5]; 6-<18 years (N = 9)): -17.83 kg
Weight (kg), Week 16 Change from Baseline, Median ([5]; 6-<18 years (N = 9)): -16.77 kg
Weight, Week 16 Percent Change from Baseline, Mean (SD) ([5]; 6-<18 years (N = 9)): −17.80%
Weight, Week 16 Percent Change from Baseline, Median ([5]; 6-<18 years (N = 9)): −14.12%
Weight (kg), Week 16 Actual, Mean (SD) ([5]; 6-<18 years (N = 9)): 89.98 kg
Mean BMI reduction ([5]; 9 completers at 16 weeks): −19.5%
Mean change in BMI Z score ([5]; FAS set, after 16 weeks): −1.1 point
Weight (kg), Week 16 Actual, Median ([5]; Total (N = 11)): 94.27 kg
Weight (kg), Week 16 Change from Baseline, Mean (SD) ([5]; Total (N = 11)): -15.87 kg
Weight (kg), Week 16 Change from Baseline, Median ([5]; Total (N = 11)): -13.90 kg
Weight, Week 16 Percent Change from Baseline, Mean (SD) ([5]; Total (N = 11)): −15.79%
Weight, Week 16 Percent Change from Baseline, Median ([5]; Total (N = 11)): −13.68%
Weight (kg), Week 16 Actual, Mean (SD) ([5]; Total (N = 11)): 91.22 kg
Mean percent change in body weight ([5]; after 16 weeks of setmelanotide, SD 7.9%): −17.8%
Reduction in BMI Z score ([5]; all patients less than 18 years old, 16 weeks): statistically significant reduction in BMI Z score
Proportion of patients achieving at least a 10% reduction in BMI ([5]; completers (n=9), 16 weeks, p<0.0001): 100%
Proportion of patients achieving greater than or equal to 5% reduction in BMI (primary endpoint) ([5]; full analysis set (n=11), 16 weeks, p<0.0001): 100%
Reduction in weight ([5]; pediatric and adult patients, 16 weeks of daily SC therapy): statistically significant and clinically meaningful reduction in weight
Weight (kg), Week 16 Actual, Median ([5]; ≥18 years (N = 2)): 96.78 kg
Weight (kg), Week 16 Change from Baseline, Mean (SD) ([5]; ≥18 years (N = 2)): -7.02 kg
Weight (kg), Week 16 Change from Baseline, Median ([5]; ≥18 years (N = 2)): -7.02 kg
Weight, Week 16 Percent Change from Baseline, Mean (SD) ([5]; ≥18 years (N = 2)): −6.76%
Weight, Week 16 Percent Change from Baseline, Median ([5]; ≥18 years (N = 2)): −6.76%
Weight (kg), Week 16 Actual, Mean (SD) ([5]; ≥18 years (N = 2)): 96.78 kg
Safety and tolerability of setmelanotide treatment ([6]; 16 weeks, up to 3.0 mg/day SC): consistent with established data
Incidence of nausea (most commonly reported TEAE) ([6]; eleven patients): 63.6%
Skin hyperpigmentation, e.g., melanocytic naevus, patients reporting ([6]; eleven patients): two of the eleven patients
Patients with at least one treatment emergent adverse event (TEAE) ([6]; eleven patients, related or unrelated to administration): All eleven of the patients
SAE related to Clostridium dificile colitis ([6]; one patient, able to complete the study): classified as severe, but not related to setmelanotide therapy
